Data as given in patent US20210284618A1, “FURANOCHALCONES AS INHIBITORS OF CYP1A1, CYP1A2 AND CYP1B1 FOR CANCER CHEMOPREVENTION” (Council of Scientific & Industrial Research, priority 2016, published 2021).

Assays:
CYP1A1 [1] = target: T1, CYP1A1 (Homo sapiens, UniProt P04798); assay: In-vitro CYP450 1A1 enzyme inhibition in Saccharosomes; format: biochemical; settings: 10 μM test compound, 5 μM ethoxyresorufin; for inhibition at 20 min, 10 μM: human, Saccharosomes containing CYP1A1, pH 7.4, probe ethoxyresorufin (5 μM), % inhibition of CYP1A1 in Saccharosomes at 10 μM
T1 construct: host or cells: yeast microsomes (Saccharosomes)
T1 sequence (P04798 1-512): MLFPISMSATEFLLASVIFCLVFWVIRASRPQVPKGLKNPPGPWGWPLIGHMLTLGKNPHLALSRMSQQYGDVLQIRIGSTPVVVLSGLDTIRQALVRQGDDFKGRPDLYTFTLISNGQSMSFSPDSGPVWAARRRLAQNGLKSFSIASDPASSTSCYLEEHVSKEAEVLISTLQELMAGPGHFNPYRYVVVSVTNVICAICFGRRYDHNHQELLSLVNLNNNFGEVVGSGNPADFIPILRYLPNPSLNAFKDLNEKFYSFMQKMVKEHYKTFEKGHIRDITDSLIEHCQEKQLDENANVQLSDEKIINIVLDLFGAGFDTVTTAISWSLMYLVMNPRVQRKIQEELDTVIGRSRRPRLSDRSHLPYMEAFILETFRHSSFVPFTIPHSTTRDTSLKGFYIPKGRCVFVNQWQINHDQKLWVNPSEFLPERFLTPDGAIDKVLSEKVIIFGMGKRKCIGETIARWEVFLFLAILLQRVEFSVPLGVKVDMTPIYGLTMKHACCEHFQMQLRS
Experimental: Example 23. In-vitro CYP450 1A1 enzyme inhibition in Saccharosomes™: The screening method utilizes 384-well microplates to rapidly ascertain relative percentage inhibition of CYP1A1 by a library of compounds. Each reaction was performed in black, clear-bottomed 384-well microplates. A reaction volume of 50 μl comprised of 0.5 pmol of the cytochrome P450 CYP1A1 (Saccharosomes), 5 μM of ethoxyresorufin substrate (which contributes 0.05% DMSO to the well), 10 μM of potential inhibitor test article (which contributes 0.5% DMSO to the well), A P450 reductase NADPH regenerating system (1.3 mM NADP+, 3.3 mM glucose-6-0.02 units phosphate and glucose-6-Phosphate dehydrogenase), potassium phosphate buffer (final well concentration 100 mM, pH 7.4) and water. Very small quantities of magnesium chloride and sodium citrate are added to the NADPH regenerating system, in line with standard published protocols. The potential inhibitor (test article) was pre-incubated with CYP1A1 of at least 20 minutes at 30° C. After this period, the remainder of the reagents required in the assay was added to initiate the process. The reaction mixture was incubated for another 20 minutes at 30° C. The reaction was stopped by adding an 80% acetonitrile, 20% 0.5 M Tris solution. The reactions were monitored using the Biotek Synergy HT plate reader by measuring the endpoint reaction at Excitation 530/(25 bandwidth) & Emission 590/(20 bandwidth) using a gain/sensitivity setting of 60. The mean of the quadruplicates of the negative control (solvent inactivated CYP1A1) was deducted from the mean of potential inhibitor (test article) samples. The percentage was then derived relative to the mean of the wells without inhibitor.
(§1) Example 25. IC50 determination for best compound against CYP1A1, CYP1B1 and other CYPs in Saccharosomes. Compounds were serially diluted to six different concentrations with 10% DMSO in a Sero-Well white microplate. The experiment was performed in a similar way as described above in examples 23 and 24.

CYP1A1 [2] = target: T1, CYP1A1; assay: CYP1A1 inhibition in HEK293 cells transfected with pcDNA3.1/CYP1A1 (live cells); format: cell-based; settings: for inhibition at 10 μM: human, HEK293 cells transfected with pcDNA3.1/CYP1A1 (live cells), probe EROD (5 μM), % inhibition of CYP1A1 in HEK293 cells at 10 μM; for inhibition at 10 μM / % inhibition of CYP1A1 in HEK293 cells at 10 μM: 5 μM EROD
Experimental: Example 26. In-vitro CYP450 inhibition in HEK293 cells transfected with pcDNA3.1/CYP1A1 against 5 μM EROD. […] The HEK293 cells used here was procured from ‘European Collection of Authenticated Cell Cultures’ (catalog number. ECACC 85120602).

CYP1B1 [3] = target: T2, CYP1B1 (Homo sapiens, UniProt Q16678); assay: CYP1B1 inhibition in live human cells (HEK293); format: cell-based
T2 sequence (Q16678 1-543): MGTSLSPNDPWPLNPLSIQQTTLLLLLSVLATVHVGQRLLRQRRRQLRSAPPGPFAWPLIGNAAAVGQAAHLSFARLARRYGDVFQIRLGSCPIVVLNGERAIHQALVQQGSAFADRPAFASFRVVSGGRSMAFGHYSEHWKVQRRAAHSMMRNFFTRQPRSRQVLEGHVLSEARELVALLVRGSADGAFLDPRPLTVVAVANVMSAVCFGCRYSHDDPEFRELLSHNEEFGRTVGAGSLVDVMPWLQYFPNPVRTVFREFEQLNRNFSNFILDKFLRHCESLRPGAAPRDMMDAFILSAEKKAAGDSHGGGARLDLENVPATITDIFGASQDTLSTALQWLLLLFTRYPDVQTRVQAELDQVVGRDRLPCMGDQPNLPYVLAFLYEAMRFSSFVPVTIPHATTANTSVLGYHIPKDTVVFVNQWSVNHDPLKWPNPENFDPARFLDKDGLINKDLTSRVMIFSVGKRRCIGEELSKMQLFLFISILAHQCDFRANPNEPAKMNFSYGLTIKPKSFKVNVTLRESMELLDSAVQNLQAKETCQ

CYP1B1 [4] = target: T2, CYP1B1; assay: In-vitro CYP450 1B1 enzyme inhibition in Saccharosomes; format: biochemical; parameters: purchased CYP Design Ltd; host or cells: yeast microsomes (Saccharosomes); settings: human, Saccharosomes (yeast-derived) with recombinant CYP1B1, probe 7-ethoxyresorufin (5 μl of 0.1 mM), % inhibition of CYP1B1 in Saccharosomes at 10 μM, 10 μM test compound, 7-ethoxyresorufin
Experimental: Example 24. In-vitro CYP450 1B1 enzyme inhibition in Saccharosomes™: Regenerating system consists of: 5 μl Solution A (183 mg of NADP++183 mg of glucose-6-phosphate+654 μl of 1.0 M magnesium chloride solution+9.15 ml of sterile ultra-pure water)+1 μl Solution B (250 Units of glucose-6-phosphate dehydrogenase+6.25 ml of 5 mM sodium citrate; mixed in a tube and made up to 10 ml with sterile ultra-pure water)+39 μl 0.2 M Kpi (0.6 ml of 1.0M K2HPO4+9.4 ml of 1.0 M KH2PO4 were mixed and made up to 50 ml with sterile ultra-pure water)+5 μl potential inhibitory compound.
as §1

inhibition at 20 min, 10 μM (CYP1A1 [1]) [%]	inhibition at 10 μM (CYP1A1 [2]) [%]	melting point [°C]	% inhibition of CYP1A1 in HEK293 cells at 10 μM (CYP1A1 [2]) [%]	IC50 (CYP1A1 [2]) [nM]	IC50 (CYP1B1 [3]) [nM]	inhibition at 10 μM (CYP1B1 [4]) [%]	% inhibition of CYP1A1 in Saccharosomes at 10 μM (CYP1A1 [1]) [%]	Structure (SMILES)
64.3	31.7	260 to 261	–	–	–	–	–	CCOc1ccc(Br)cc1/C=C/C(=O)c1c(O)c(OC)c2occc2c1OC [Compound 11, 3-(4,7-dimethoxy-6-hydroxybenzofuran-5-yl)-1-(2-ethoxy,5-bromophenyl)-3-oxopropene]
19.6	58.8	298 to 299	–	–	–	–	–	COc1c(C(=O)/C=C/c2c(Cl)cccc2Cl)c(O)c(OC)c2occc12 [Compound 10, 3-(4,7-dimethoxy-6-hydroxybenzofuran-5-yl)-1-(2,6-dichlorophenyl)-3-oxopropene]
77.5	> 80	162 to 164	85.7	–	–	–	–	COc1c(C(=O)/C=C/c2ccc(Cl)cc2)c(O)c(OC)c2occc12 [Compound 4, 3-(4,7-dimethoxy-6-hydroxybenzofuran-5-yl)-1-(4-chlorophenyl)-3-oxopropene]
–	> 80	154 to 156	–	–	–	–	–	COc1c(C(=O)/C=C/c2ccc(F)cc2F)c(O)c(OC)c2occc12 [Compound 7, 3-(4,7-dimethoxy-6-hydroxybenzofuran-5-yl)-1-(2,4-difluorophenyl)-3-oxopropene]
> 80	79.6	–	–	480	1320	49.5	–	COc1c(C(=O)/C=C/c2ccc(F)cc2)c(O)c(OC)c2occc12 [Compound 6, 3-(4,7-dimethoxy-6-hydroxybenzofuran-5-yl)-1-(4-fluorophenyl)-3-oxopropene]
28.9	55.7	198 to 199	–	–	–	–	–	COc1ccc(/C=C/C(=O)c2c(O)c(OC)c3occc3c2OC)cc1 [Compound 9, 3-(4,7-dimethoxy-6-hydroxybenzofuran-5-yl)-1-(4-methoxyphenyl)-3-oxopropene]
23.6	19.5	160 to 161	–	–	–	–	–	COc1c(C(=O)/C=C/c2ccccc2Cl)c(O)c(OC)c2occc12 [Compound 12, 3-(4,7-dimethoxy-6-hydroxybenzofuran-5-yl)-1-(2-chlorophenyl)-3-oxopropene]
> 80	> 80	186 to 188	82.3	–	–	–	83.1	COc1c(C(=O)/C=C/c2ccc(F)c(Br)c2)c(O)c(OC)c2occc12 [Compound 5, 3-(4,7-dimethoxy-6-hydroxybenzofuran-5-yl)-1-(3-bromo-4-fluorophenyl)-3-oxopropene]
21.9	71.6	300 to 301	–	–	–	–	–	COc1c(C(=O)/C=C/c2c(F)c(F)c(F)c(F)c2F)c(O)c(OC)c2occc12 [Compound 15, 3-(4,7-dimethoxy-6-hydroxybenzofuran-5-yl)-1-(2,3,4,5,6 pentafluorophenyl)-3-oxopropene]
